Test [1] deals with SKBR3 breast cancer cells. As to the kind of experiment: Cancer cell growth inhibition assay (CellTiter-Blue). In kind it is cell-based. The conditions noted are these: Homo sapiens, SK-BR-3, Table 2, 96 hours. The procedure:
The effects of the compounds on cancer cell growth were determined using the CellTiter-Blue cell viability assay (Promega). CellTiter-Blue® Cell Viability is based on the ability of living cells to convert a redox dye (resazurin) into a fluorescent end product (resorufin).
The SKBR3 breast cancer cells were plated in 384-well microtiter plates (Costar) and allowed to attach overnight. After treatment with either compounds or vehicle (DMSO) for 96 hours, the cells were measured for their viability by CellTiter-Blue. Briefly, 10 μl of CelTiter-Blue were added to each well in 384-well plates and incubated at 37° C. for 4 hours. The fluorescence intensity (FI) was measured using the Analyst HT plate reader (Molecular Devices) with an excitation at 545 nm and emission at 595 nm. The IC50 was calculated as the compound concentration that inhibits cell viability by 50% compared with vehicle control wells. The IC50 values were determined as described above.
(The colour change of resazurin is a common sign of viable cells or microbes.)

For test [2], the system named is Her2 protein in MCF-7 breast cancer cells. As to the kind of experiment: Cell-based Her2 degradation assay by Western Blot. The conditions noted are these: Homo sapiens, read-out: IC50, Her2 degradation WB. An excerpt:
Addition of Hsp90 inhibitors to cancer cells induces the proteasomal degradation of a subset of proteins involved in signal transduction such as Raf1 kinase, Akt and certain transmembrane tyrosine kinases such as Her2. Thus, Her2 degradation in cells is a functional read-out of Hsp90 inhibition. Correlation between Hsp90 binding and Her2 degradation in cancer cells is indicative of a selective biological effect in these cells via Hsp90.
A Western blot-based assay was used to measure the cellular level of Her2 protein in MCF-7 breast cancer cell lysates collected after 24 hours of compound treatment. […] Then 2×10^5 cells were seeded in 24 well plates in 500 μl PRMI1640 medium and allowed to attach overnight. The compounds were dissolved in DMSO, added to the wells, and incubated for 24 hours. The cells were washed using ice-cold phosphate-buffered saline (PBS) and lysed in 1% NP40 lysis buffer (10 mM HEPES, pH 7.4, 150 mM NaCl, 1% Nonident P-40, 5 mM Pyrophosphate, 5 mM NaF, 2 mM Orthovanadate, 10 ug/ml Aprotinin, 10 ug/ml Leupeptin, 1 mM PMSF). After boiling with 6×SDS sample buffer, the cell lysates were separated by SDS-PAGE and transferred to nitrocellulose membrane. The membranes were blocked with 5% milk in tris-buffered saline buffer.

The test system of test [3] is Her2 protein in SKBr3 breast cancer cells. As to the kind of experiment: Cell-based Her2 degradation assay by Cytoblot. The conditions noted are these: Homo sapiens, SK-BR-3, Table 2, values with asterisk, 24 hours. The procedure: Cellular Her2 level after compound treatment was also monitored by microtiter-based Her2 degradation assay, Cytoblot assay (Huezo, Vilenchik et al. Chem. Biol., 2003, 10, 629-634). This is a cell-based assay that enables the quantitative analysis of intracellular levels of Her2 protein.
The human breast cancer cell lines SKBr3 were maintained in RPMI1640 medium supplemented with 10% FBS. 3000 cells in 100 μl of growth medium were plated per well in black, clear-bottom microtiter plates (Corning) and allowed to attach for at least 24 hours at 37° C. and 5% CO2. Compounds at different doses or vehicle (DMSO) were carefully added to the wells and incubated for 24 hours. The cells were washed twice with ice-cold Tris buffer saline (TBS) containing 0.1% Tween 20 (TBST) and fixed with ice-cold methanol. After washing with TBST, the plate was incubated at RT for 1 hour with SuperBlock (Pierce 37535) and overnight at 4° C. with the anti-Her-2 antibody (Santa Cruz Biotechnology). The plate was then washed with TBST and incubated at RT for 2 hours with an anti-rabbit HRP-linked antibody (Sigma A0545). The chemiluminescent substrate solution (Pierce 38040) was added and the plate was read 5 minutes later in an Analyst HT plate reader (Molecular Devices). Luminescence readings resulting from compound-treated cells versus untreated cells (vehicle treated) were quantified and plotted against compound concentrations to give the IC50 values (defined as concentration of compound required to degrade 50% of total Her2).

Test [4] concerns tumor specific Hsp90 (NCI-N417 cell lysate). Nature of the test: Hsp90 binding FP competition assay. Set-up: species or system human. The conditions noted are these: Table 2, GM-cy3B 5 nM. The source says: There are several assays that have been developed to identify novel Hsp90 inhibitors based on the interaction of small molecules with recombinant Hsp90 protein, either yeast or human. To measure a therapeutically significant state of Hsp90, an FP assay that uses human cancer cell lysates instead of recombinant protein (Du, Moulick et al. J. Biomol. Screen, 2007, 12, 915-24) was utilized. It probes the interaction of small molecules with tumor-specific Hsp90 and may therefore lead to inhibitors that are not only selective for cancer cells but also specific for a particular malignancy.
The dose-response effect of the compounds was tested in Hsp90 binding FP competition assays to obtain the IC50 of the compounds. The Hsp90 FP competition assay was performed in 384-well black plate using the small-cell lung carcinoma (SCLC) cell line NCI-N417 as a source of tumor specific Hsp90 and the Cy3B-labeled geldanamycin (GM-cy3B) as the FP ligand. The compound was dissolved in DMSO and added at several concentrations to the reaction buffer containing both GM-cy3B (5 nM) and NCI-N417 cell lysate (1 μg/well) in a final volume of 50 μL. Free GM-cy3B (5 nM) and bound GM-cy3B with NCI-N417 cell lysate (5 nM GM-cy3B and 1 μg/well of NCI-N417 cell lysate) were included as controls in each plate. After incubating at room temperature for 2 to 16 hours, the polarization values were measured and expressed as millipolarization (mP) units using Analyst HT plate reader (Molecular Devices). The competitive efficiency of the compounds were expressed as a percentage of control and calculated according to the following equation:
% of control=((mPc−mPf)/(mPb−mPf))×100
where mPc is the recorded mP from compound wells, mPf is the average recorded mP from GM-cy3B-only wells, and mPb is the average recorded mP from wells containing both GM-cy3B and NCI-N417 lysate. IC50 values were determined using a nonlinear regression analysis as implemented in Prism 4.0 (Graphpad Software).

Setting [5] is: MCF7, Table 2, values without asterisk, MCF-7 cells, 24 hours.

pIC50: −log10 of the molar value. Where two headings read alike, the source gives them in different places.

Turning to `O=C1C=C(N2CCC(Cc3ccccc3)CC2)c2ccccc2C1=O` [Compound 45], the pIC50 is 6.02 in test [1], 5.60 to 5.90 in test [2] (setting [5]), 5.65 in test [3] and 6.64 in test [4].

Take `CC(C)CN(CC(C)C)C1=CC(=O)C(=O)c2ccccc21` [Compound 49]: the pIC50 in test [1] was 5.56; in test [2] (setting [5]), 5.30 to 5.60; in test [3], 4.73; in test [4], 5.73.

With `COc1ccccc1NC1=CC(=O)C(=O)c2ccccc21` [Compound 50], the pIC50 was 5.91 in test [1], 5.60 to 5.90 in test [2] (setting [5]), 5.42 in test [3] and 7.05 in test [4].

Turning to `COc1ccc(NC2=CC(=O)C(=O)c3ccccc32)cc1` [Compound 51], the pIC50 in test [1] is 4.80; in test [2] (MCF7, 24 h) it was 5.60 to 5.90; in test [3] it was 5.44; in test [4] it was 7.15.

Turning to `COc1ccc(NC2=CC(=O)C(=O)c3ccccc32)c(OC)c1` [Compound 53], the pIC50 was 5.85 in test [1], 5.30 to 5.60 in test [2] (setting [5]), 5.40 in test [3] and 6.89 in test [4].

Turning to `COc1cc(NC2=CC(=O)C(=O)c3ccccc32)cc(OC)c1` [Compound 54], the pIC50 is 5.13 in test [1], 5.30 to 5.60 in test [2] (setting [5]), 5.38 in test [3] and 8.00 in test [4].

Regarding `O=C1C=C(Nc2ccc3c(c2)OCO3)c2ccccc2C1=O` [Compound 55], the pIC50 is 5.50 in test [1], 5.30 to 5.60 in test [2] (setting [5]), 5.42 in test [3] and 7.40 in test [4].

As for `O=C1C=C(N2CCN(Cc3cccc(C(F)(F)F)c3)CC2)c2ccccc2C1=O` [Compound 56], the pIC50 in test [1] is 6.52; in test [3], 5.72; in test [4], 6.28.

Consider `O=C1C=C(N2CCN(c3cccc4ccccc34)CC2)c2ccccc2C1=O` [Compound 57], for which the pIC50 is 6.66 in test [1], 5.41 in test [3] and 6.05 in test [4].

`O=C1C=C(N2CCC(O)(c3ccc(Cl)cc3)CC2)c2ccccc2C1=O` [Compound 58]: the pIC50 is 6.37 in test [1], 5.77 in test [3] and 6.27 in test [4].

On to `O=C1C=C(N2CCN(Cc3cccc4ccccc34)CC2)c2ccccc2C1=O` [Compound 59], for which the pIC50 in test [1] is 6.21; in test [3], 5.37; in test [4], 6.11.

Take `COc1cc(NC2=CC(=O)C(=O)c3ccccc32)cc(OC)c1OC` [Compound 60]: the pIC50 in test [1] was 5.62; in test [3], 5.07; in test [4] it was 6.74.

As for `COc1ccc(NC2=CC(=O)C(=O)c3ccccc32)cc1OC` [Compound 61], the negative-log IC50 (pIC50) in test [1] is 5.50; in test [3], 5.32; in test [4], 6.41.

Take `O=C1C=C(N2CCNCC2)c2ccccc2C1=O` [Compound 62]: the pIC50 was less than 4.70 in test [1], 4.64 in test [3] and 5.81 in test [4].

On to `O=C1C=C(N2CCN(S(=O)(=O)c3cc(Cl)cc(Cl)c3O)CC2)c2ccccc2C1=O` [Compound 63], for which the results for the pIC50 in test [1], in test [3] and in test [4] were less than 4.70, 4.58 and 5.88, respectively.

Consider `COc1ccc(S(=O)(=O)N2CCN(C3=CC(=O)C(=O)c4ccccc43)CC2)cc1OC` [Compound 64], for which the negative logarithm of the IC50 (pIC50) in test [1] is less than 4.70; in test [3], 4.54; in test [4], 6.24.

For the compound `O=C1C=C(Nc2cc3c(cc2Br)OCO3)c2ccccc2C1=O` [Compound 65], the pIC50 was 5.44 in test [1], 4.81 in test [3] and 6.28 in test [4].

Regarding `COc1cc(Br)c(NC2=CC(=O)C(=O)c3ccccc32)cc1OC` [Compound 66], the figures for the negative-log IC50 (pIC50) in test [1], in test [3] and in test [4] were 4.96, 4.65 and 6.21, respectively.

In the case of `Cc1cc(C)nc(NC2=CC(=O)C(=O)c3ccccc32)c1` [Compound 67], the pIC50 was 6.68 in test [1], 4.94 in test [3] and 6.19 in test [4].

The pIC50 is the negative decadic logarithm of the IC50, by convention in mol/L.
